Measured values as given in paper PMC7665585, “Antidepressive effect of an inward rectifier K^+ channel blocker peptide, tertiapin-RQ” (PLoS ONE, 2020).
Entries after “also recorded” stand apart in the source; their conditions may differ. Bridge positions count the residues as written; N and C are the ends. Ends that are not written are not given here. Peptide text beside a SMILES is read from it.

These compounds were tested against T1, rat ROMK (Rattus norvegicus, UniProt P35560) (assay: Whole-cell patch-clamp of ROMK currents in 208–4 cells). Conditions: blockade at 1 μM estimated from fitted Hill curve (four parameters), whole-cell conductance, n = 3–6.
T1 construct: expressed in transfected cells; host or cells: 293T cell line 208-4 (lentiviral transduction, GFP coexpressed)
T1 sequence (P35560 1-391): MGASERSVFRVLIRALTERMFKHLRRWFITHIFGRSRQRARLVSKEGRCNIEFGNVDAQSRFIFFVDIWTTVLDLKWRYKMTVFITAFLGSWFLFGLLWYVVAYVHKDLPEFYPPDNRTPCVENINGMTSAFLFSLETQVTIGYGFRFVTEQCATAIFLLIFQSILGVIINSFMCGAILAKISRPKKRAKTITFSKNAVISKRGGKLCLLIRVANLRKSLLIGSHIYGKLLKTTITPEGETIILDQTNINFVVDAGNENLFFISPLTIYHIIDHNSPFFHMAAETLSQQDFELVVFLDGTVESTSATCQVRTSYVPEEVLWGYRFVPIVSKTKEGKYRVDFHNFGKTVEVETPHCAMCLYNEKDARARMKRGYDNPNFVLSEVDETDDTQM
Format: cell-based
From the text: The cDNAs for rat ROMK and mouse GIRK1, 2, and 4 were generously donated by Drs Mikio Hayashi (Kansai Medical University) and David Weaver (Vanderbilt University). The ROMK channels were stably expressed by a cell line, 208–4, which was transduced with lentiviral vectors coexpressing the channel and green fluorescent protein (GFP) as described previously. The GIRK genes, cloned in a pCMV6 plasmid (Origene Technologies Inc, Rockville, MD), were transiently expressed in 293T cells with calcium phosphate transfection. GIRK channel currents were recorded 24 h after transfection.
Cells grown on small cover glasses (3 × 18 mm) were placed in a recording chamber. Whole-cell currents were recorded in Tyrode solution using an Axopatch 200B amplifier (Axon Instruments, Foster City, CA) at 25°C. Tyrode solution contained (in mM): NaCl 140, KCl 5.4, NaH2PO4 0.33, CaCl2 2, MgCl2 1, HEPES 5, and glucose 5.5 (pH 7.4 adjusted with NaOH). High K^+ Tyrode solution (KCL 50 mM, NaCl 95 mM, and others were the same as standard Tyrode solution) was used for the recording of GIRK channels. Patch pipettes pulled from borosilicate glass (Narishige, Tokyo, Japan) were filled with an internal solution containing (in mM): K-aspartate 66, KCl 71.5, KH2PO4 1, EGTA 5, HEPES 5, and MgATP 3 (pH 7.4 adjusted with KOH). Recordings were digitized at 10 kHz, and low-pass filtered at 2 kHz. ROMK, Kir2.1, and GIRK currents were evoked with step pulses of 400 msec from -150 mV to 10 mV in 10 mV increments from a holding potential of -70 mV. Whole-cell currents were recorded 60 sec after the peptide application and those from 100 to 300 msec of the step pulses were averaged. Liquid junction potential or capacitive transient was not corrected or compensated. Whole-cell conductance was calculated as the slope of the current-voltage (I-V) relationship from -140 mV to -100 mV and normalized to the initial value (0 μM TPN), in which BaCl2-resistant current was subtracted and indicted as a percentage.

In the case of TPN-RQ(C5S) [Peptide 46], the “Activity (ROMK channel blocking activity, percentage of blockade at 1 μM)” value was “- (-, <20%)”.
TPN 14–21 [Peptide 17] was tested, and the “Activity (ROMK channel blocking activity, percentage of blockade at 1 μM)” value was “- (-, <20%)”.
For TPN 2–9 [Peptide 5], the “Activity (ROMK channel blocking activity, percentage of blockade at 1 μM)” value was “- (-, <20%)”.

Same assay, conditions: blockade at 1 μM estimated from fitted Hill curve (four parameters), whole-cell conductance, n = 3–6, read-out: Activity (ROMK channel blocking activity, percentage of blockade at 1 μM)

`CC[C@H](C)[C@@H]1NC(=O)[C@H](CCCNC(=N)N)NC(=O)[C@H](CCCNC(=N)N)NC(=O)[C@H](CC(N)=O)NC(=O)[C@@H]2CSSC[C@@H](C(=O)NCC(=O)N[C@@H](CCCCN)C(=O)N[C@@H](CCCCN)C(N)=O)NC(=O)[C@H](C)NC(=O)[C@H](C)NC(=O)[C@H](Cc3c[nH]c4ccccc34)NC(=O)[C@H](CSSC[C@H](NC(=O)[C@H](CC(C)C)NC(=O)[C@H](C)N)C(=O)N[C@@H](CC(N)=O)C(=O)N2)NC(=O)[C@H](CCC(N)=O)NC(=O)[C@H](Cc2c[nH]cn2)NC(=O)[C@@H]2CCCN2C(=O)[C@H]([C@@H](C)CC)NC1=O` [Peptide 66, TPN-RQ(K16A/K17A)] (H-ALCNCNRRIIPHQCWAACGKK-NH2; disulfide 3-14, 5-18) and `CC[C@H](C)[C@@H]1NC(=O)[C@H](CCCNC(=N)N)NC(=O)[C@H](CCCNC(=N)N)NC(=O)[C@H](CC(N)=O)NC(=O)[C@@H]2CSSC[C@@H](C(=O)NCC(=O)N[C@@H](CCCCN)C(=O)N[C@@H](CCCCN)C(N)=O)NC(=O)[C@H](CCCCN)NC(=O)[C@H](CCCCN)NC(=O)[C@H](Cc3c[nH]c4ccccc34)NC(=O)[C@H](CSSC[C@H](NC(=O)[C@H](CC(C)C)NC(=O)[C@H](C)N)C(=O)N[C@@H](CC(N)=O)C(=O)N2)NC(=O)[C@H](CCC(N)=O)NC(=O)[C@H](Cc2c[nH]cn2)NC(=O)[C@@H]2CCCN2C(=O)[C@H](C)NC1=O` [Peptide 61, TPN-RQ(I10A)] (H-ALCNCNRRIAPHQCWKKCGKK-NH2; disulfide 3-14, 5-18) fall in the same range of inhibition at 1 µM: 20 to 40% for the first, 20 to 40% for the second.

`CC[C@H](C)[C@@H]1NC(=O)[C@H](C)NC(=O)[C@H](C)NC(=O)[C@H](CC(N)=O)NC(=O)[C@@H]2CSSC[C@@H](C(=O)NCC(=O)N[C@@H](CCCCN)C(=O)N[C@@H](CCCCN)C(N)=O)NC(=O)[C@H](CCCCN)NC(=O)[C@H](CCCCN)NC(=O)[C@H](Cc3c[nH]c4ccccc34)NC(=O)[C@H](CSSC[C@H](NC(=O)[C@H](CC(C)C)NC(=O)[C@H](C)N)C(=O)N[C@@H](CC(N)=O)C(=O)N2)NC(=O)[C@H](CCC(N)=O)NC(=O)[C@H](Cc2c[nH]cn2)NC(=O)[C@@H]2CCCN2C(=O)[C@H]([C@@H](C)CC)NC1=O` [Peptide 58, TPN-RQ(R7A/R8A)] (H-ALCNCNAAIIPHQCWKKCGKK-NH2; disulfide 3-14, 5-18) and `CC[C@H](C)[C@@H]1NC(=O)[C@H](CCCNC(=N)N)NC(=O)[C@H](CCCNC(=N)N)NC(=O)[C@H](CC(N)=O)NC(=O)[C@H](CO)NC(=O)[C@H](CC(N)=O)NC(=O)[C@@H](NC(=O)[C@@H](N)CCC(N)=O)CSSC[C@@H](C(=O)N[C@@H](Cc2c[nH]c3ccccc23)C(=O)N[C@@H](CCCCN)C(N)=O)NC(=O)[C@H](CCC(N)=O)NC(=O)[C@H](Cc2c[nH]cn2)NC(=O)[C@@H]2CCCN2C(=O)[C@H]([C@@H](C)CC)NC1=O` [Peptide 43, Q + TPN-RQ 3-16(C5S)] (H-QCNSNRRIIPHQCWK-NH2; disulfide 2-13) cannot be ordered by inhibition at 1 µM: under 20% for the first, under 20% for the second.

`CC[C@H](C)[C@@H]1NC(=O)[C@H](CCCNC(=N)N)NC(=O)[C@H](CCCNC(=N)N)NC(=O)[C@H](CC(N)=O)NC(=O)[C@H](CO)NC(=O)[C@H](CC(N)=O)NC(=O)[C@@H](N)CSSC[C@@H](C(=O)N[C@@H](Cc2c[nH]c3ccccc23)C(=O)N[C@@H](CCCCN)C(N)=O)NC(=O)[C@H](CCC(N)=O)NC(=O)[C@H](Cc2c[nH]cn2)NC(=O)[C@@H]2CCCN2C(=O)[C@H]([C@@H](C)CC)NC1=O` [Peptide 41, TPN-RQ 3-16(C5S)] (H-CNSNRRIIPHQCWK-NH2; disulfide 1-12) and “RRAIPHQK-NH2 [Peptide 25, TPN-RQ 7-13(I9A) + K]” cannot be ordered by inhibition at 1 µM: under 20% for the first, under 20% for the second.

First: CC[C@H](C)[C@@H]1NC(=O)[C@H](CCCNC(=N)N)NC(=O)[C@H](CCCNC(=N)N)NC(=O)[C@H](CC(N)=O)NC(=O)[C@@H]2CSSC[C@@H](C(=O)NCC(=O)N[C@@H](CCCCN)C(=O)N[C@@H](CCCCN)C(N)=O)NC(=O)[C@H](CCCCN)NC(=O)[C@H](CCCCN)NC(=O)[C@H](Cc3c[nH]c4ccccc34)NC(=O)[C@H](CSSC[C@H](NC(=O)[C@H](C)NC(=O)[C@H](C)N)C(=O)N[C@@H](CC(N)=O)C(=O)N2)NC(=O)[C@H](CCC(N)=O)NC(=O)[C@H](Cc2c[nH]cn2)NC(=O)[C@@H]2CCCN2C(=O)[C@H]([C@@H](C)CC)NC1=O [Peptide 55, TPN-RQ(L2A)] (H-AACNCNRRIIPHQCWKKCGKK-NH2; disulfide 3-14, 5-18)
Second: IIPHMCWK-NH2 [Peptide 12, TPN 9–16]
The inhibition at 1 µM of the first is higher: 60 to 80% for the first, under 20% for the second.

“RRIIPHAK-NH2 [Peptide 29, TPN-RQ 7-13(Q13A) + K]” and `CC[C@H](C)[C@@H]1NC(=O)[C@H](CCCNC(=N)N)NC(=O)[C@H](CCCNC(=N)N)NC(=O)[C@H](CC(N)=O)NC(=O)[C@@H](N)CSSC[C@@H](C(=O)N[C@@H](Cc2c[nH]c3ccccc23)C(=O)N[C@@H](CCCCN)C(=O)N[C@@H](CCCCN)C(N)=O)NC(=O)[C@H](CCC(N)=O)NC(=O)[C@H](CCCCN)NC(=O)[C@@H]2CCCN2C(=O)[C@H]([C@@H](C)CC)NC1=O` [Peptide 38, TPN-RQ 5-17(H12K)] (H-CNRRIIPKQCWKK-NH2; disulfide 1-10) cannot be ordered by inhibition at 1 µM: under 20% for the first, under 20% for the second.

NRIIIPHM-NH2 [Peptide 9, TPN 6–13] and `CC[C@H](C)[C@@H]1NC(=O)[C@H](CCCNC(=N)N)NC(=O)[C@H](CC(N)=O)NC(=O)[C@@H]2CSSC[C@@H](C(=O)NCC(=O)N[C@@H](CCCCN)C(=O)N[C@@H](CCCCN)C(N)=O)NC(=O)[C@H](CCCCN)NC(=O)[C@H](CCCCN)NC(=O)[C@H](Cc3c[nH]c4ccccc34)NC(=O)[C@H](CSSC[C@H](NC(=O)[C@H](CC(C)C)NC(=O)[C@H](C)N)C(=O)N[C@@H](CC(N)=O)C(=O)N2)NC(=O)[C@H](CCC(N)=O)NC(=O)[C@H](Cc2c[nH]cn2)NC(=O)[C@@H]2CCCN2C1=O` [Peptide 52, TPN-RQ(Δ8R/ΔI9)] (H-ALCNCNRIPHQCWKKCGKK-NH2; disulfide 3-12, 5-16) cannot be ordered by inhibition at 1 µM: under 20% for the first, under 20% for the second.

Compared with `CC[C@H](C)[C@@H]1NC(=O)[C@H](CCCNC(=N)N)NC(=O)[C@H](CCCNC(=N)N)NC(=O)[C@H](CC(N)=O)NC(=O)[C@@H]2CSSC[C@@H](C(=O)NCC(=O)N[C@@H](CCCCN)C(=O)N[C@@H](CCCCN)C(N)=O)NC(=O)[C@H](CCCCN)NC(=O)[C@H](CCCCN)NC(=O)[C@H](Cc3c[nH]c4ccccc34)NC(=O)[C@H](CSSC[C@H](NC(=O)[C@H](CC(C)C)NC(=O)[C@H](C)N)C(=O)N[C@@H](CC(N)=O)C(=O)N2)NC(=O)[C@H](CCC(N)=O)NC(=O)[C@H](C)NC(=O)[C@@H]2CCCN2C(=O)[C@H]([C@@H](C)CC)NC1=O` [Peptide 63, TPN-RQ(H12A)] (H-ALCNCNRRIIPAQCWKKCGKK-NH2; disulfide 3-14, 5-18), IIIPHMCW-NH2 [Peptide 11, TPN 8–15] is lower in inhibition at 1 µM: 40 to 60% for the first, under 20% for the second.

`CC[C@H](C)[C@@H]1NC(=O)[C@H](CCCNC(=N)N)NC(=O)[C@H](CCCNC(=N)N)NC(=O)[C@H](C)NC(=O)[C@@H]2CSSC[C@@H](C(=O)NCC(=O)N[C@@H](CCCCN)C(=O)N[C@@H](CCCCN)C(N)=O)NC(=O)[C@H](CCCCN)NC(=O)[C@H](CCCCN)NC(=O)[C@H](Cc3c[nH]c4ccccc34)NC(=O)[C@H](CSSC[C@H](NC(=O)[C@H](CC(C)C)NC(=O)[C@H](C)N)C(=O)N[C@@H](CC(N)=O)C(=O)N2)NC(=O)[C@H](CCC(N)=O)NC(=O)[C@H](Cc2c[nH]cn2)NC(=O)[C@@H]2CCCN2C(=O)[C@H]([C@@H](C)CC)NC1=O` [Peptide 57, TPN-RQ(N6A)] (H-ALCNCARRIIPHQCWKKCGKK-NH2; disulfide 3-14, 5-18) gave an inhibition at 1 µM of 60 to 80%.

Same assay, conditions: whole-cell recordings

TPN-RQ(C5S) [Peptide 46] was tested, and the “ROMK blocking activity (in words)” value was “little blocking activity; also recorded: scarcely blocked the channel”.
